Tests used:
[1] = molecular target: T1, AADAC (arylacetamide deacetylase) (Homo sapiens, UniProt P22760); experiment: Drug metabolism assessed as AADAC-mediated compound hydrolysis in human liver homogenates at 5 to 200 uM; type: ADME, tissue-based; conditions: read-out: Drug metabolism
T1 sequence (P22760 whole entry): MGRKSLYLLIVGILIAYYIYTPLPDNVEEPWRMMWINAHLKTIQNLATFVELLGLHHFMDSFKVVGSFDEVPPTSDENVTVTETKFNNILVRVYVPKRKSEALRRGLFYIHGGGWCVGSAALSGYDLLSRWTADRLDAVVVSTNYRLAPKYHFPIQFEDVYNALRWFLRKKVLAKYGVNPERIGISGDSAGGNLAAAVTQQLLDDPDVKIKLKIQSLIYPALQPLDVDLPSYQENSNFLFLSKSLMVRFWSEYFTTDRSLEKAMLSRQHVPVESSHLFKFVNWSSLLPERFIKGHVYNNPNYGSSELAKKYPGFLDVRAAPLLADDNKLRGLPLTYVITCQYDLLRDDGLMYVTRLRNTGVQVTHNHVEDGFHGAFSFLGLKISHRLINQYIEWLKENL

[2] = molecular target: T2, Arylacetamide deacetylase (Homo sapiens, UniProt P22760); experiment: Drug metabolism assessed as human recombinant AADAC-mediated compound hydrolysis at 5 uM; type: ADME
T2 sequence (P22760 whole entry): T1 sequence (P22760 whole entry)

CES2 (cocaine esterase) [3] = molecular target: T3, CES2 (cocaine esterase) (Homo sapiens, UniProt O00748); experiment: Drug metabolism assessed as loperamide-mediated inhibition of human recombinant CES2-mediated compound hydrolysis measured as enzyme activity at 5 uM relative to control; type: ADME; design: scale not given: the % may be the effect or the level left; conditions: recombinant CES2, with loperamide (concentration not clearly stated), read-out: Activity
T3 sequence (O00748 whole entry): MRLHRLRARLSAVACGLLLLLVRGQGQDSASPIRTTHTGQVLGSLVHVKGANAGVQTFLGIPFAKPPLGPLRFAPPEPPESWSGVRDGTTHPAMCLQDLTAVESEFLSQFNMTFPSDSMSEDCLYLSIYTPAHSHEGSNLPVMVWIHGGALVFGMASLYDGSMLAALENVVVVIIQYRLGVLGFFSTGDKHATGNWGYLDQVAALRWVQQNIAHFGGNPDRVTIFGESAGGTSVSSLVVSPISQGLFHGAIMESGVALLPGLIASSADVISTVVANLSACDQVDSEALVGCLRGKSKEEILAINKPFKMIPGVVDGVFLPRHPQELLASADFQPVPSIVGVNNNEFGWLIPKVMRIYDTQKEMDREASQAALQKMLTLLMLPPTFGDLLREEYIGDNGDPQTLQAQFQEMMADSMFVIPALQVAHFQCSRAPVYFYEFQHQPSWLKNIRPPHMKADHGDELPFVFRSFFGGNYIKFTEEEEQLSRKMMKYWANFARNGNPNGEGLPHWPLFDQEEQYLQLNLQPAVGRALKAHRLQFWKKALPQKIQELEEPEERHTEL

Cocaine esterase [4] = molecular target: T4, Cocaine esterase (Homo sapiens, UniProt O00748); experiment: Intrinsic clearance assessed as ratio of Vmax to Km for human recombinant CES2; type: ADME; conditions: recombinant enzyme
T4 sequence (O00748 whole entry): T3 sequence (O00748 whole entry)

CES2 (cocaine esterase) [5] = molecular target: T3, CES2 (cocaine esterase); experiment: Drug metabolism assessed as CES2-mediated compound hydrolysis in human liver homogenates at 200 uM; type: ADME, tissue-based; conditions: read-out: Drug metabolism
Cocaine esterase [6] = molecular target: T4, Cocaine esterase; experiment: Drug metabolism assessed as CES2-mediated compound hydrolysis in human liver homogenates at 5 to 200 uM; type: ADME, tissue-based; conditions: tissue homogenate
[7] = molecular target: T2, Arylacetamide deacetylase; experiment: Drug metabolism assessed as human recombinant AADAC-mediated compound hydrolysis expressed in SF21 cells at 50 uM; type: ADME; conditions: sf21, 50 µM
CES2 (cocaine esterase) [8] = molecular target: T3, CES2 (cocaine esterase); experiment: Drug metabolism assessed as CES2-mediated compound hydrolysis in human liver homogenates at 50 uM; type: ADME, tissue-based; conditions: read-out: Drug metabolism
[9] = molecular target: T1, AADAC (arylacetamide deacetylase); experiment: Drug metabolism assessed as AADAC-mediated compound hydrolysis in human liver homogenates at 200 uM; type: ADME, tissue-based; conditions: read-out: Drug metabolism
[10] = molecular target: T1, AADAC (arylacetamide deacetylase); experiment: Drug metabolism assessed as loperamide-mediated inhibition of human recombinant AADAC-mediated compound hydrolysis expressed in SF21 cells measured as enzyme activity at 5 uM relative to control; type: ADME; design: scale not given: the % may be the effect or the level left; conditions: with loperamide (concentration not clearly stated), read-out: Activity
[11] = molecular target: T2, Arylacetamide deacetylase; experiment: Drug metabolism assessed as human recombinant AADAC-mediated compound hydrolysis at 200 uM; type: ADME
Cocaine esterase [12] = molecular target: T4, Cocaine esterase; experiment: Inhibition of human recombinant CES2 assessed as compound hydrolysis
Cocaine esterase [13] = molecular target: T4, Cocaine esterase; experiment: Drug metabolism assessed as loperamide-mediated inhibition of CES2-mediated compound hydrolysis in human liver cytosol at 5 uM relative to control; type: ADME, tissue-based; design: scale not given: the % may be the effect or the level left
Cocaine esterase [14] = molecular target: T4, Cocaine esterase; experiment: Drug metabolism assessed as loperamide-mediated inhibition of CES2-mediated compound hydrolysis in human jejunum microsomes at 5 uM relative to control; type: ADME; design: scale not given: the % may be the effect or the level left
[15] = molecular target: T1, AADAC (arylacetamide deacetylase); experiment: Drug metabolism assessed as AADAC-mediated compound hydrolysis in human liver homogenates at 5 uM; type: ADME, tissue-based; conditions: read-out: Drug metabolism
Cocaine esterase [16] = molecular target: T4, Cocaine esterase; experiment: Drug metabolism assessed as human recombinant CES2-mediated compound hydrolysis at 50 uM; type: ADME; conditions: recombinant enzyme
Cocaine esterase [17] = molecular target: T4, Cocaine esterase; experiment: Drug metabolism assessed as loperamide-mediated inhibition of CES2-mediated compound hydrolysis in human liver microsomes at 5 uM relative to control; type: ADME; design: scale not given: the % may be the effect or the level left
CES2 (cocaine esterase) [18] = molecular target: T3, CES2 (cocaine esterase); experiment: Drug metabolism assessed as CES2-mediated compound hydrolysis in human liver homogenates at 5 uM; type: ADME, tissue-based; conditions: read-out: Drug metabolism
Cocaine esterase [19] = molecular target: T4, Cocaine esterase; experiment: Drug metabolism assessed as human recombinant CES2-mediated compound hydrolysis at 200 uM; type: ADME; conditions: recombinant enzyme
[20] = molecular target: T1, AADAC (arylacetamide deacetylase); experiment: Drug metabolism assessed as AADAC-mediated compound hydrolysis in human liver homogenates at 50 uM; type: ADME, tissue-based; conditions: read-out: Drug metabolism
Liver carboxylesterase 1 = molecular target: T5, Liver carboxylesterase 1 (Homo sapiens, UniProt P23141); experiment: Drug metabolism assessed as human recombinant CES1-mediated compound hydrolysis at 5 uM; type: ADME; conditions: recombinant enzyme
T5 sequence (P23141 whole entry): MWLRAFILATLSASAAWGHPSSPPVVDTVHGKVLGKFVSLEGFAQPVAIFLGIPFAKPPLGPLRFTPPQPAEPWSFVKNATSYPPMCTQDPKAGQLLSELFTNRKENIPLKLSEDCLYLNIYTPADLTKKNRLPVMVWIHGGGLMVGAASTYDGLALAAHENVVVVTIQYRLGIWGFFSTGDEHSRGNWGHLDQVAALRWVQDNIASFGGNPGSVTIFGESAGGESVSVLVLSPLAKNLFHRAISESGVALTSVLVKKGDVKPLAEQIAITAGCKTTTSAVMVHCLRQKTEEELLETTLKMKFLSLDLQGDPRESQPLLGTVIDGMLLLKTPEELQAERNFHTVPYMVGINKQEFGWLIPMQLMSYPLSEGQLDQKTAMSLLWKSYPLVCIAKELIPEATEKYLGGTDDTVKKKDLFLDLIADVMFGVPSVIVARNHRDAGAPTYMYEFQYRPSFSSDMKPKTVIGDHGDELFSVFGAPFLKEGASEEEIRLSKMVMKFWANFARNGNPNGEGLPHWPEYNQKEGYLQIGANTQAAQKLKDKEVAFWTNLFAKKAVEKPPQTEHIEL

Cocaine esterase [21] = molecular target: T4, Cocaine esterase; experiment: Drug metabolism assessed as human recombinant CES2-mediated compound hydrolysis at 5 uM; type: ADME; conditions: recombinant enzyme
Cocaine esterase [22] = molecular target: T4, Cocaine esterase; experiment: Drug metabolism assessed as human recombinant CES2-mediated compound hydrolysis at 2 uM; type: ADME; conditions: recombinant enzyme

Which metabolised at up to 200 µM [1] does the source give for `CC(C)C(=O)Nc1ccc([N+](=O)[O-])c(C(F)(F)F)c1` [FLUTAMIDE] here?
Its metabolised at up to 200 µM is 79.6%.

What about the Drug metabolism [2] of the same compound?
Its Drug metabolism is 3.1 pmol/min/mg.

And the activity at 5 µM (CES2 (cocaine esterase) [3])?
Its activity at 5 µM is 7.7%.

And the Ratio (Cocaine esterase [4])?
Its Ratio is 4.2 µL/min/mg.

What about the metabolised at 200 µM (CES2 (cocaine esterase) [5]) of the same compound?
Its metabolised at 200 µM is 10.6%.

What about the Drug metabolism (Cocaine esterase [6]) of the same compound?
The Drug metabolism was 170.4%.

And the Drug metabolism [7]?
Its Drug metabolism is 87.6 pmol/min/mg.

What about the metabolised at 50 µM (CES2 (cocaine esterase) [8]) of the same compound?
The metabolised at 50 µM was 47%.

And the metabolised at 200 µM [9]?
The metabolised at 200 µM was 89.4%.

And the activity at 5 µM [10]?
Its activity at 5 µM is 74.7%.

What about the Drug metabolism [11] of the same compound?
The Drug metabolism was 389 pmol/min/mg.

What about the Ki (Cocaine esterase [12]) of the same compound?
The Ki was 2300 nM.

And the Activity (Cocaine esterase [13])?
The Activity was 15.7%.

And the Activity (Cocaine esterase [14])?
Its Activity is 18.6%.

What about the metabolised at 5 µM [15] of the same compound?
The metabolised at 5 µM was 11.7%.

What about the Drug metabolism (Cocaine esterase [16]) of the same compound?
Its Drug metabolism is 38.9 pmol/min/mg.

What about the Activity (Cocaine esterase [17]) of the same compound?
Its Activity is 22.9%.

And the metabolised at 5 µM (CES2 (cocaine esterase) [18])?
The metabolised at 5 µM was 88.3%.

What about the Drug metabolism (Cocaine esterase [19]) of the same compound?
The Drug metabolism was 13.5 pmol/min/mg.

And the metabolised at 50 µM [20]?
The metabolised at 50 µM was 53%.

What about the Drug metabolism (Liver carboxylesterase 1) of the same compound?
Its Drug metabolism is “metabolite_not_detected”.

And the Drug metabolism (Cocaine esterase [21])?
The Drug metabolism was 16 pmol/min/mg.

For `CO[C@H]1/C=C/O[C@@]2(C)Oc3c(C)c(O)c4c(O)c(c(/C=N/N5CCN(C)CC5)c(O)c4c3C2=O)NC(=O)/C(C)=C\C=C\[C@H](C)[C@H](O)[C@@H](C)[C@@H](O)[C@@H](C)[C@H](OC(C)=O)[C@@H]1C` [RIFAMPIN], which Drug metabolism [7] is on record?
Its Drug metabolism is 41.77 pmol/min/mg.

What about the Drug metabolism (Cocaine esterase [22]) of the same compound?
Its Drug metabolism is 2.99 pmol/min/mg.
